The target in data set [1] is human epithelial 15-lipoxygenase-2 (15-LOX-2) (Homo sapiens (Human), UniProt O15296). Briefly: biochemical.
For data set [2], the target named is human platelet 12-lipoxygenase (12-LOX) (Homo sapiens (Human), UniProt P18054). The note with it: for IC50: read-out: IC50 [+SD], Table 1, UV-vis cuvette-based assay in triplicate.
The subject of data set [3] is washed human platelets. Briefly: PAR4-AP-induced platelet aggregation. The data set is classed as cell-based. Here is the method: (§1) Blood was centrifuged at 200 g for 13 min at room temperature.
Data set [4] relates to washed human platelets. Briefly: PAR4-AP-induced calcium mobilization. To be noted: 200 μM PAR4-AP; increasing concentrations. Format: cell-based. Here is the method: as §1
(Calcium flux is commonly read through the fluorescence of an indicator in the cells.)

The subject of data set [5] is human donor islet preparations. Briefly: Glucose-stimulated insulin secretion in human islets. The data set is classed as cell-based. To be noted: cytokines (TNFα, IL-1β, IFNγ); 3 mM or 18 mM glucose. Here is the method:
FIGS. 3D and 3E show results from glucose-stimulated insulin secretion in human donor islet preparations in response to 3 mM glucose (Low) or 18 mM glucose (High) for control (untreated) islets. […] FIGS. 3D and 3E represent results obtained in different human donor islet preparations.

A short description of data set [6]: PBS buffer (pH 7.4) solubility. The data set is classed as physicochemical.
Data set [7] can be described thus: Microsomal stability (rat). The data set is classed as in vitro ADME.
A further data set is described as follows: mouse plasma stability. The data set is classed as in vitro ADME.
A short description of data set [8]: Stability in aqueous buffers and glutathione. Format: physicochemical.
A further data set has as its target 12-LOX (Homo sapiens (Human), UniProt P18054).
A further data set concerns Mouse beta cells (BTC3). Briefly: Mouse Beta cells (12-HETE Inhibition) Assay. The note with it: AA/IONO.
The nature of data set [9]: Parallel Artificial Membrane Permeability Assay (PAMPA). The note with it: PAMPA at pH 7.4.

“Also recorded” adds a separate entry of the source. Some results are limits rather than exact numbers.

human platelet 12-lipoxygenase (12-LOX), sequence (P18054 whole entry): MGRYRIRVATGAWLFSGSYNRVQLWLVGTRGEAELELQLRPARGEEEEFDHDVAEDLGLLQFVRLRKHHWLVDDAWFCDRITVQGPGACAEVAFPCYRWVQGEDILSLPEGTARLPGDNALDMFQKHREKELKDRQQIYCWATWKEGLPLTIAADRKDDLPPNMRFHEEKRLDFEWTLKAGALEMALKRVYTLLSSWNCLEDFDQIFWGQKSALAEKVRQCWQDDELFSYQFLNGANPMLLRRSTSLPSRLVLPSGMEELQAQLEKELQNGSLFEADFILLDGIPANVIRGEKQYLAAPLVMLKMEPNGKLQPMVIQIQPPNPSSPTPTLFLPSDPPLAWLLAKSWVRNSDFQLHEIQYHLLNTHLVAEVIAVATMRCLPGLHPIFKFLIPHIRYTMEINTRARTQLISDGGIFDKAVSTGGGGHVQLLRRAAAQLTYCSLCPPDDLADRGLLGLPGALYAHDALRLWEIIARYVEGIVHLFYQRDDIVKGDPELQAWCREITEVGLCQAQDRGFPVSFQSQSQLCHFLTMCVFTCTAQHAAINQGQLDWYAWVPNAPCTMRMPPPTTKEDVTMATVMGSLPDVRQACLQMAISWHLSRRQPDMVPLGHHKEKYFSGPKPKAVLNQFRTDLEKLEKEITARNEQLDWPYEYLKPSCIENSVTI
human epithelial 15-lipoxygenase-2 (15-LOX-2), sequence (O15296 whole entry): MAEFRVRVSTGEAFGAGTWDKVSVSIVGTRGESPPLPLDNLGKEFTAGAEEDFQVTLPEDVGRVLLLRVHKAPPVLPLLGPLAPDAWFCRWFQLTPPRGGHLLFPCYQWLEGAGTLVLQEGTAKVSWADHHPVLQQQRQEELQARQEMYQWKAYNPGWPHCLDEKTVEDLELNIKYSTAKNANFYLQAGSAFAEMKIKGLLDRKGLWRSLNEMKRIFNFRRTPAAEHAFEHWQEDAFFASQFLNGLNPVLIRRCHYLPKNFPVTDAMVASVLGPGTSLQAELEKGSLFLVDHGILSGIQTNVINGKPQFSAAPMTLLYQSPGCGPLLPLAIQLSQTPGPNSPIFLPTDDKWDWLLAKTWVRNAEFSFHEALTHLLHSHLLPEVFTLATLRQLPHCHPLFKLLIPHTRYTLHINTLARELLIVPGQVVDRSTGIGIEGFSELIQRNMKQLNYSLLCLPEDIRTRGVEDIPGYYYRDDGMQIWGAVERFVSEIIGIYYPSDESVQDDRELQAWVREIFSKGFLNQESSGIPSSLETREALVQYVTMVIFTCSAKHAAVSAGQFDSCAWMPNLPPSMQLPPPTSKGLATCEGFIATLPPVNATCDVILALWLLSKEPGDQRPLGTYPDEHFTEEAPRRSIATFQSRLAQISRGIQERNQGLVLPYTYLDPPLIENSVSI
12-LOX, sequence (P18054 whole entry): as the sequence (P18054 whole entry) above

For orientation: IC50 means the concentration at which inhibition is half-maximal. In data set [1], `COc1cccc(CNc2ccc(S(=O)(=O)Nc3nccs3)cc2)c1O` [Compound 1, 4-(2-hydroxy-3-methoxybenzylamino)-N-(thiazol-2-yl)benzenesulfonamide] registered an IC50 greater than 40 µM.

Consider `O=S(=O)(Nc1nccs1)c1ccc(NCc2ccccc2)cc1` [Compound 8, 4-(benzylamino)-N-(thiazol-2-yl)benzene sulfonamide], for which, in data set [2], the “12-LOX inhibitory activity (SAR, in words)” value (“12-LOX inhibitory activity” below) is reported as “complete loss of activity” and the IC50 is greater than 40 µM.

`O=S(=O)(Nc1nccs1)c1ccc(NCc2ccccc2O)cc1` [Compound 9, 4-(2-hydroxybenzylamino)-N-(thiazol-2-yl)benzene sulfonamide]: in [2], the “12-LOX inhibitory activity” value is recorded as “complete loss of activity” and the IC50 is greater than 40 µM.

With `Nc1ccccc1CNc1ccc(S(=O)(=O)Nc2nccs2)cc1` [Compound 13, 4-(2-aminobenzylamino)-N-(thiazol-2-yl)benzene sulfonamide], in [2], the “12-LOX inhibitory activity” value is listed as “negated all 12-LOX inhibitory activity” and the IC50 was greater than 40 µM.

Regarding `O=S(=O)(Nc1nccs1)c1ccc(NCc2cccc(O)c2)cc1` [Compound 14, 4-(3-hydroxybenzylamino)-N-(thiazol-2-yl)benzene sulfonamide], the IC50 in data set [2] is greater than 40 µM.

A word on the solubility: it is the dissolved amount per volume that the medium holds. A higher solubility goes with much dissolved substance. With `COc1cccc(CNc2ccc(S(=O)(=O)Nc3nc4ccccc4o3)cc2)c1O` [Compound 36, N-(benzo[d]oxazol-2-yl)-4-((2-hydroxy-3-methoxybenzyl)amino)benzenesulfonamide], in the data set with washed human platelets [3], the “PAR4-AP induced platelet aggregation (in words)” value is listed as “Comparable results”. Moreover, in the data set on washed human platelets [4], the “PAR4-AP-induced calcium mobilization (in words)” value was “Calcium mobilization was decreased; also recorded: Comparable results”. Further, in data set [5], the “glucose-stimulated insulin secretion with cytokines” value was “Uncoupling of glucose-stimulated insulin secretion by cytokines is inhibited”. The molecule also showed a solubility in data set [6] (PBS buffer, pH 7.4, aqueous buffer) greater than 60 µg/mL. Besides, the “improvement of solubility in buffer” value in [6] (relative to ML355) is greater than 10 fold. Moreover, in [7] (microsomes, rat, in the presence of NADPH, read-out: Microsomal stability T1/2), the half-life was greater than 30 min. For the same molecule, the “microsomal degradation without NADPH” value in data set [7] (without NADPH present over a 1 h period) is “^bRepresents the stability in the presence of NADPH. 35 and 36 showed no degradation without NADPH present over a 1 h period”. Besides, in “mouse plasma stability”, the “mouse plasma stability remaining at 2 h (%)” value was 100%. Also, the “PBS buffer (pH 7.4) stability at 48 h (%)” value in data set [8] was found to be 100%. For the same molecule, the mode of inhibition entry on 12-LOX is “mixed inhibitors”. Also, the “inhibition of 12-HETE in mouse beta cells (in words)” value with Mouse beta cells (BTC3) was “Comparable results”. In addition, the “permeability (1 × 10^−6 cm/s)” value in data set [9] is 168^c 1 × 10^−6 cm/s.

Source of the values: patent publication US10752581B2, “4-((2-hydroxy-3-methoxybenzyl)amino)benzenesulfonamide derivatives as potent and selective inhibitors of 12-lipoxygenase” (Eastern Virginia Medical School, priority 2013, dated 2020).
